# In US20230226005A1, “Methods of Treating, Ameliorating, Shortening Duration, and/or Reversing Symptoms and/or Complications of a Coronavirus Infection” (Yale University, priority 2020, published 2023):
# Tested on: COVID-19 infection
# Test: Phase IIa study: COVID-19 PRO daily self-score, symptom severity score (items 1-33, 0-132)
# Format: in vivo
compound,measurement,setting,value
"CN(C)C(=O)COC(=O)Cc1ccc(OC(=O)c2ccc(NC(=N)N)cc2)cc1 [camostat, 4-[[4-[(Aminoiminomethyl)amino]benzoyl]oxy]benzeneacetic acid 2-(dimethylamino)-2-oxoethyl ester]",acceleration of COVID-19 symptom resolution,"COVID-19 PRO self-score, vs placebo",up to 5 days
same,COVID-19 symptom severity score raw Mean,day 0,34.9
same,"symptom score, Fitzmaurice mixed effects model, A: Camostat arm",day 0,31.81 (2.17)
same,"symptom score, Fitzmaurice mixed effects model, B − A (placebo − camostat)",day 0,0
same,"symptom severity score, Negative binomial model, A: Camostat arm",day 0,31.81 (2.56)
same,"symptom severity score, Negative binomial model, B − A",day 0,0
same,COVID-19 symptom severity score raw Mean,day 1,30.4
same,"symptom score, Fitzmaurice mixed effects model, A: Camostat arm",day 1,27.95 (2.59)
same,"symptom score, Fitzmaurice mixed effects model, B − A (placebo − camostat)",day 1,−0.73 (2.76)
same,"symptom severity score, ANCOVA linear mixed model, A: Camostat arm",day 1,−2.93 (2.11)
same,"symptom severity score, ANCOVA linear mixed model, B − A (placebo − camostat)",day 1,−1.83 (2.99)
same,"symptom severity score, Negative binomial model, A: Camostat arm",day 1,28.22 (3.06)
same,"symptom severity score, Negative binomial model, B − A",day 1,0.95 (0.1)
same,COVID-19 symptom severity score raw Mean,day 2,29.7
same,"symptom score, Fitzmaurice mixed effects model, A: Camostat arm",day 2,26.89 (2.63)
same,"symptom score, Fitzmaurice mixed effects model, B − A (placebo − camostat)",day 2,−3.09 (2.8)
same,"symptom severity score, ANCOVA linear mixed model, A: Camostat arm",day 2,−3.96 (2.16)
same,"symptom severity score, ANCOVA linear mixed model, B − A (placebo − camostat)",day 2,−4.22 (3.02)
same,"symptom severity score, Negative binomial model, A: Camostat arm",day 2,27.28 (3.05)
same,"symptom severity score, Negative binomial model, B − A",day 2,0.85 (0.1)
same,COVID-19 symptom severity score raw Mean,day 3,24.1
same,"symptom score, Fitzmaurice mixed effects model, A: Camostat arm",day 3,22.97 (2.6)
same,"symptom score, Fitzmaurice mixed effects model, B − A (placebo − camostat)",day 3,−0.36 (2.79)
same,"symptom severity score, ANCOVA linear mixed model, A: Camostat arm",day 3,−8.01 (2.13)
same,"symptom severity score, ANCOVA linear mixed model, B − A (placebo − camostat)",day 3,−1.34 (3.01)
same,"symptom severity score, Negative binomial model, A: Camostat arm",day 3,23.35 (3.02)
same,"symptom severity score, Negative binomial model, B − A",day 3,0.96 (0.13)
same,COVID-19 symptom severity score raw Mean,day 4,20.8
same,"symptom score, Fitzmaurice mixed effects model, A: Camostat arm",day 4,19.69 (2.6)
same,"symptom score, Fitzmaurice mixed effects model, B − A (placebo − camostat)",day 4,0.89 (2.8)
same,"symptom severity score, ANCOVA linear mixed model, A: Camostat arm",day 4,−11.29 (2.13)
same,"symptom severity score, ANCOVA linear mixed model, B − A (placebo − camostat)",day 4,−0.1 (3.02)
same,"symptom severity score, Negative binomial model, A: Camostat arm",day 4,20.17 (2.89)
same,"symptom severity score, Negative binomial model, B − A",day 4,1 (0.17)
same,COVID-19 symptom severity score raw Mean,day 5,17.7
same,"symptom score, Fitzmaurice mixed effects model, A: Camostat arm",day 5,16.57 (2.6)
same,"symptom score, Fitzmaurice mixed effects model, B − A (placebo − camostat)",day 5,5.84 (2.79)
same,"symptom severity score, ANCOVA linear mixed model, A: Camostat arm",day 5,−14.41 (2.13)
same,"symptom severity score, ANCOVA linear mixed model, B − A (placebo − camostat)",day 5,4.84 (3.01)
same,"symptom severity score, Negative binomial model, A: Camostat arm",day 5,17.14 (2.63)
same,"symptom severity score, Negative binomial model, B − A",day 5,1.27 (0.24)
same,COVID-19 symptom severity score raw Mean,day 6,14.1
same,"symptom score, Fitzmaurice mixed effects model, A: Camostat arm",day 6,12.53 (2.62)
same,"symptom score, Fitzmaurice mixed effects model, B − A (placebo − camostat)",day 6,6.9 (2.81)
same,"symptom severity score, ANCOVA linear mixed model, A: Camostat arm",day 6,−18.43 (2.15)
same,"symptom severity score, ANCOVA linear mixed model, B − A (placebo − camostat)",day 6,5.89 (3.02)
same,"symptom severity score, Negative binomial model, A: Camostat arm",day 6,13.4 (2.45)
same,"symptom severity score, Negative binomial model, B − A",day 6,1.38 (0.29)
same,COVID-19 symptom severity score raw Mean,day 7,12.6
same,"symptom score, Fitzmaurice mixed effects model, A: Camostat arm",day 7,11.37 (2.67)
same,"symptom score, Fitzmaurice mixed effects model, B − A (placebo − camostat)",day 7,4.68 (2.84)
same,"symptom severity score, ANCOVA linear mixed model, A: Camostat arm",day 7,−19.64 (2.2)
same,"symptom severity score, ANCOVA linear mixed model, B − A (placebo − camostat)",day 7,3.71 (3.05)
same,"symptom severity score, Negative binomial model, A: Camostat arm",day 7,12.09 (2.79)
same,"symptom severity score, Negative binomial model, B − A",day 7,1.23 (0.3)
same,COVID-19 symptom severity score raw Mean,day 8,11.4
same,"symptom score, Fitzmaurice mixed effects model, A: Camostat arm",day 8,9.57 (2.67)
same,"symptom score, Fitzmaurice mixed effects model, B − A (placebo − camostat)",day 8,5.4 (2.85)
same,"symptom severity score, ANCOVA linear mixed model, A: Camostat arm",day 8,−21.42 (2.2)
same,"symptom severity score, ANCOVA linear mixed model, B − A (placebo − camostat)",day 8,4.43 (3.06)
same,"symptom severity score, Negative binomial model, A: Camostat arm",day 8,10.6 (2.64)
same,"symptom severity score, Negative binomial model, B − A",day 8,1.28 (0.34)
same,COVID-19 symptom severity score raw Mean,day 9,10.7
same,"symptom score, Fitzmaurice mixed effects model, A: Camostat arm",day 9,8.86 (2.67)
same,"symptom score, Fitzmaurice mixed effects model, B − A (placebo − camostat)",day 9,5.13 (2.85)
same,"symptom severity score, ANCOVA linear mixed model, A: Camostat arm",day 9,−22.13 (2.2)
same,"symptom severity score, ANCOVA linear mixed model, B − A (placebo − camostat)",day 9,4.16 (3.06)
same,"symptom severity score, Negative binomial model, A: Camostat arm",day 9,9.94 (2.43)
same,"symptom severity score, Negative binomial model, B − A",day 9,1.25 (0.33)
same,COVID-19 symptom severity score raw Mean,day 10,10
same,"symptom score, Fitzmaurice mixed effects model, A: Camostat arm",day 10,8.24 (2.67)
same,"symptom score, Fitzmaurice mixed effects model, B − A (placebo − camostat)",day 10,4.67 (2.85)
same,"symptom severity score, ANCOVA linear mixed model, A: Camostat arm",day 10,−22.75 (2.2)
same,"symptom severity score, ANCOVA linear mixed model, B − A (placebo − camostat)",day 10,3.7 (3.06)
same,"symptom severity score, Negative binomial model, A: Camostat arm",day 10,9.36 (2.56)
same,"symptom severity score, Negative binomial model, B − A",day 10,1.2 (0.36)
same,COVID-19 symptom severity score raw Mean,day 11,9.3
same,"symptom score, Fitzmaurice mixed effects model, A: Camostat arm",day 11,7.25 (2.69)
same,"symptom score, Fitzmaurice mixed effects model, B − A (placebo − camostat)",day 11,4.44 (2.87)
same,"symptom severity score, ANCOVA linear mixed model, A: Camostat arm",day 11,−23.77 (2.22)
same,"symptom severity score, ANCOVA linear mixed model, B − A (placebo − camostat)",day 11,3.5 (3.08)
